Among the data in the OligoGym collection are 3 h FOB score values, retold here.

HELM strings list units from the 5' end as sugar, base in round brackets, then linkage (d deoxyribose, r ribose, m 2'-O-methyl, p phosphodiester). Strings are as the collection lists them; they lack the last nucleoside at the 3' end of the tested compound. [moe] = 2'-O-(2-methoxyethyl) (MOE); [sp] = phosphorothioate linkage; [m5C] = 5-methylcytosine

For this series, the target named is ATXN2. The series is described as follows: mouse, dose not given. To be noted: ASO.
As for “RNA1{[moe](T)[sp].[moe]([m5C])p.[moe]([m5C])p.[moe](A)p.[moe](A)p.d(T)[sp].d(T)[sp].d(T)[sp].d([m5C])[sp].d(A)[sp].d(G)[sp].d(A)[sp].d([m5C])[sp].d(T)[sp].d(T)[sp].[moe]([m5C])p.[moe](T)p.[moe](T)[sp].[moe](G)}$$$$ (last 3' nucleoside missing)”, the 3 h FOB score stood at 2 score 0-7.

The substance “RNA1{[moe](T)[sp].[moe]([m5C])p.[moe]([m5C])p.[moe](A)p.[moe](T)p.d(T)[sp].d(A)[sp].d(T)[sp].d(T)[sp].d(T)[sp].d([m5C])[sp].d(T)[sp].d(T)[sp].d([m5C])[sp].d(A)[sp].[moe]([m5C])p.[moe](G)p.[moe](T)[sp].[moe](T)}$$$$ (last 3' nucleoside missing)” had a 3 h FOB score of 1 score 0-7.

“RNA1{[moe](T)[sp].[moe]([m5C])p.[moe]([m5C])p.[moe](T)p.[moe](A)[sp].d(T)[sp].d([m5C])[sp].d(A)[sp].d(T)[sp].d([m5C])[sp].d(A)[sp].d(T)[sp].d(T)[sp].[moe](T)p.[moe](T)p.[moe]([m5C])[sp].[moe]([m5C])}$$$$ (last 3' nucleoside missing)” came in with a 3 h FOB score of 1 score 0-7.

For the substance “RNA1{[moe](T)[sp].[moe]([m5C])p.[moe]([m5C])p.[moe](T)p.[moe](A)p.d(T)[sp].d([m5C])[sp].d(A)[sp].d(T)[sp].d([m5C])[sp].d(A)[sp].d(T)[sp].d(T)[sp].d(T)[sp].d(T)[sp].[moe]([m5C])p.[moe]([m5C])p.[moe](A)[sp].[moe](G)}$$$$ (last 3' nucleoside missing)”, the 3 h FOB score is 3.75 score 0-7.

As for “RNA1{[moe](T)[sp].[moe]([m5C])p.[moe]([m5C])p.[moe](T)p.[moe](T)p.d(G)[sp].d(T)[sp].d(T)[sp].d(G)[sp].d(T)[sp].d(A)[sp].d(T)[sp].d(G)[sp].d(G)[sp].d(T)[sp].[moe](A)p.[moe](A)p.[moe](T)[sp].[moe](T)}$$$$ (last 3' nucleoside missing)”, the 3 h FOB score came out at 5 score 0-7.

“RNA1{[moe]([m5C])[sp].[moe](A)p.[moe](G)p.[moe](A)p.[moe](A)p.d(A)[sp].d(G)[sp].d([m5C])[sp].d(T)[sp].d(G)[sp].d(T)[sp].d(G)[sp].d(T)[sp].d(G)[sp].d(T)[sp].[moe](T)p.[moe](T)p.[moe](A)[sp].[moe](A)}$$$$ (last 3' nucleoside missing)” showed a 3 h FOB score of 6 score 0-7.

In turn, “RNA1{[moe]([m5C])[sp].[moe](A)p.[moe](G)p.[moe](T)p.[moe](G)p.d(T)[sp].d(T)[sp].d(G)[sp].d([m5C])[sp].d(A)[sp].d([m5C])[sp].d(A)[sp].d(T)[sp].d(A)[sp].d(G)[sp].[moe](G)p.[moe](T)p.[moe](T)[sp].[moe](A)}$$$$ (last 3' nucleoside missing)” gave a 3 h FOB score of 5 score 0-7.

“RNA1{[moe]([m5C])[sp].[moe](A)p.[moe](G)p.[moe](T)p.[moe](G)p.d([m5C])[sp].d([m5C])[sp].d(T)[sp].d(T)[sp].d(T)[sp].d(A)[sp].d([m5C])[sp].d([m5C])[sp].d([m5C])[sp].d([m5C])[sp].[moe](T)p.[moe](T)p.[moe](G)[sp].[moe](A)}$$$$ (last 3' nucleoside missing)” gave a 3 h FOB score of 5.25 score 0-7.

In turn, “RNA1{[moe]([m5C])[sp].[moe](A)p.[moe](G)p.[moe]([m5C])p.[moe](A)p.d(T)[sp].d(G)[sp].d(A)[sp].d(T)[sp].d([m5C])[sp].d(T)[sp].d(T)[sp].d(G)[sp].d(T)[sp].d(G)[sp].[moe](T)p.[moe](A)p.[moe](T)[sp].[moe](A)}$$$$ (last 3' nucleoside missing)” had a 3 h FOB score of 2.25 score 0-7.

Regarding “RNA1{[moe]([m5C])[sp].[moe](A)p.[moe](G)p.[moe]([m5C])p.[moe](T)p.d([m5C])[sp].d(T)[sp].d(G)[sp].d(T)[sp].d(T)[sp].d([m5C])[sp].d(G)[sp].d(A)[sp].d(T)[sp].d(G)[sp].[moe]([m5C])p.[moe](A)p.[moe](G)[sp].[moe](G)}$$$$ (last 3' nucleoside missing)”, the 3 h FOB score amounted to 6.25 score 0-7.

In the case of “RNA1{[moe]([m5C])[sp].[moe](A)p.[moe](T)p.[moe](A)p.[moe]([m5C])p.d(G)[sp].d([m5C])[sp].d(G)[sp].d(G)[sp].d(T)[sp].d(G)[sp].d(A)[sp].d(A)[sp].d(T)[sp].d(T)[sp].[moe]([m5C])p.[moe](T)p.[moe](G)[sp].[moe](T)}$$$$ (last 3' nucleoside missing)”, the 3 h FOB score was found to be 4 score 0-7.

The substance “RNA1{[moe]([m5C])[sp].[moe](A)p.[moe](T)p.[moe](T)p.[moe](T)p.d(T)[sp].d(G)[sp].d(A)[sp].d(A)[sp].d(T)[sp].d(T)[sp].d(A)[sp].d([m5C])[sp].d(A)[sp].d(A)[sp].[moe](T)p.[moe](G)p.[moe]([m5C])[sp].[moe](G)}$$$$ (last 3' nucleoside missing)” returned a 3 h FOB score of 1 score 0-7.

Substance “RNA1{[moe]([m5C])[sp].[moe](A)p.[moe]([m5C])p.[moe](A)[sp].[moe](G)[sp].d(T)[sp].d(T)[sp].d(T)[sp].d([m5C])[sp].d(A)[sp].d([m5C])[sp].d(T)[sp].d(A)[sp].d(G)[sp].d(G)[sp].[moe](T)p.[moe](T)p.[moe]([m5C])[sp].[moe](T)}$$$$ (last 3' nucleoside missing)” registered a 3 h FOB score of 4 score 0-7.

Turning to “RNA1{[moe]([m5C])[sp].[moe](A)p.[moe]([m5C])p.[moe](A)p.[moe](G)[sp].d(T)[sp].d(T)[sp].d(T)[sp].d([m5C])[sp].d(A)[sp].d([m5C])[sp].d(T)[sp].d(A)[sp].d(G)[sp].d(G)[sp].[moe](T)p.[moe](T)p.[moe]([m5C])[sp].[moe](T)}$$$$ (last 3' nucleoside missing)”, the 3 h FOB score was 4.75 score 0-7.

“RNA1{[moe]([m5C])[sp].[moe](A)p.[moe]([m5C])p.[moe](A)p.[moe](G)p.d(T)[sp].d(T)[sp].d(T)[sp].d([m5C])[sp].d(A)[sp].d([m5C])[sp].d(T)[sp].d(A)[sp].d(G)[sp].d(G)[sp].[moe](T)p.[moe](T)p.[moe]([m5C])[sp].[moe](T)}$$$$ (last 3' nucleoside missing)” displayed a 3 h FOB score of 4.25 score 0-7.

On to “RNA1{[moe]([m5C])[sp].[moe](A)p.[moe]([m5C])p.[moe](A)p.[moe]([m5C])p.d(A)[sp].d([m5C])[sp].d(T)[sp].d(T)[sp].d(T)[sp].d(A)[sp].d(A)[sp].d(A)[sp].d(T)[sp].d(A)[sp].[moe]([m5C])p.[moe](A)p.[moe](G)[sp].[moe](G)}$$$$ (last 3' nucleoside missing)”, for which the 3 h FOB score was 6.5 score 0-7.

Consider “RNA1{[moe]([m5C])[sp].[moe](G)p.[moe](G)p.[moe](A)p.[moe](T)p.d(T)[sp].d(G)[sp].d(T)[sp].d(T)[sp].d(T)[sp].d(T)[sp].d([m5C])[sp].d(T)[sp].d(T)[sp].d([m5C])[sp].[moe](A)p.[moe](T)p.[moe](T)[sp].[moe](A)}$$$$ (last 3' nucleoside missing)”, for which the 3 h FOB score worked out at 1 score 0-7.

“RNA1{[moe]([m5C])[sp].[moe](G)p.[moe](T)p.[moe](A)p.[moe](T)[sp].d(G)[sp].d(T)[sp].d(T)[sp].d(T)[sp].d(G)[sp].d(T)[sp].d([m5C])[sp].d(T)[sp].[moe](G)p.[moe](T)p.[moe]([m5C])[sp].[moe](T)}$$$$ (last 3' nucleoside missing)” showed a 3 h FOB score of 6 score 0-7.

Turning to “RNA1{[moe]([m5C])[sp].[moe](G)p.[moe](T)p.[moe](A)p.[moe](T)p.[moe](G)p.d(T)[sp].d(T)[sp].d(T)[sp].d(G)[sp].d(T)[sp].d([m5C])[sp].d(T)[sp].d(G)[sp].d(T)[sp].d([m5C])[sp].[moe](T)p.[moe](T)[sp].[moe](A)}$$$$ (last 3' nucleoside missing)”, the 3 h FOB score amounted to 6.75 score 0-7.

Substance “RNA1{[moe]([m5C])[sp].[moe](G)p.[moe](T)p.[moe](A)p.[moe](T)p.d(G)[sp].d(T)[sp].d(T)[sp].d(T)[sp].d(G)[sp].d(T)[sp].d([m5C])[sp].d(T)[sp].d(G)[sp].d(T)[sp].[moe]([m5C])p.[moe](T)p.[moe](T)[sp].[moe](A)}$$$$ (last 3' nucleoside missing)” showed a 3 h FOB score of 6.25 score 0-7.

In turn, “RNA1{[moe]([m5C])[sp].[moe](G)p.[moe](T)p.[moe](A)p.d(T)[sp].d(G)[sp].d(T)[sp].d(T)[sp].d(T)[sp].d(G)[sp].d(T)[sp].d([m5C])[sp].d(T)[sp].d(G)[sp].[moe](T)p.[moe]([m5C])p.[moe](T)p.[moe](T)[sp].[moe](A)}$$$$ (last 3' nucleoside missing)” returned a 3 h FOB score of 4 score 0-7.

“RNA1{[moe]([m5C])[sp].[moe](G)p.[moe](T)p.[moe](G)p.[moe](G)p.d(T)[sp].d(G)[sp].d(G)[sp].d(T)[sp].d(G)[sp].d(T)[sp].d(G)[sp].d([m5C])[sp].d(G)[sp].d([m5C])[sp].[moe](A)p.[moe](T)p.[moe](G)[sp].[moe](T)}$$$$ (last 3' nucleoside missing)” had a 3 h FOB score of 6.25 score 0-7.

Regarding “RNA1{[moe]([m5C])[sp].[moe](G)p.[moe](T)p.[moe](T)p.[moe](T)p.d([m5C])[sp].d([m5C])[sp].d(T)[sp].d(T)[sp].d([m5C])[sp].d(T)[sp].d([m5C])[sp].d([m5C])[sp].d([m5C])[sp].d(T)[sp].[moe](T)p.[moe](T)p.[moe](G)[sp].[moe](A)}$$$$ (last 3' nucleoside missing)”, the 3 h FOB score turned out to be 0 score 0-7.

“RNA1{[moe]([m5C])[sp].[moe](G)p.[moe]([m5C])p.[moe](G)p.[moe](G)p.d(T)[sp].d(G)[sp].d(A)[sp].d(A)[sp].d(T)[sp].d(T)[sp].d([m5C])[sp].d(T)[sp].d(G)[sp].d(T)[sp].[moe]([m5C])p.[moe](T)p.[moe]([m5C])[sp].[moe]([m5C])}$$$$ (last 3' nucleoside missing)” registered a 3 h FOB score of 1 score 0-7.

Regarding “RNA1{[moe]([m5C])[sp].[moe](T)[sp].[moe](G)[sp].[moe](G)[sp].[moe](T)[sp].d(A)[sp].d([m5C])[sp].d(A)[sp].d(G)[sp].d(T)[sp].d(T)[sp].d(G)[sp].d([m5C])[sp].d(T)[sp].d(G)[sp].[moe]([m5C])[sp].[moe](T)[sp].[moe](G)[sp].[moe]([m5C])}$$$$ (last 3' nucleoside missing)”, the 3 h FOB score is 7 score 0-7.
